Where “and” joins values, the source holds several entries; their conditions need not be identical. Identical values can stand only once. Inconclusive results and toxic doses are left out.
Tested on: BDF1 mice, P388 leukemia ip, median survival T/C
Assay: NCI In Vivo Anticancer Drug Screen. Data for tumor model P388 Leukemia (intraperitoneal) in B6D2F1 (BDF1) mice
Settings: endpoint: median survival time, higher = longer survival
Summary of the method: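 Reported as T/C, where T is the survival measurement in dosed animals and C the same measurement in vehicle controls.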

[1] = dose: 5.0 mg/kg/injection, schedule: Q01DX009 (ip), vehicle: Klucel (hydroxypropylcellulose) (HPC)
[2] = dose: 10.0 mg/kg/injection, schedule: Q01DX009 (ip), vehicle: Klucel (hydroxypropylcellulose) (HPC)
[3] = dose: 20.0 mg/kg/injection, schedule: Q01DX009 (ip), vehicle: Klucel (hydroxypropylcellulose) (HPC)
[4] = dose: 100.0 mg/kg/injection, schedule: Q01DX009 (ip), vehicle: Klucel (hydroxypropylcellulose) (HPC)
[5] = dose: 100.0 mg/kg/injection, schedule: Q04DX003 (ip), vehicle: Klucel (hydroxypropylcellulose) (HPC)
[6] = dose: 200.0 mg/kg/injection, schedule: Q01DX009 (ip), vehicle: Klucel (hydroxypropylcellulose) (HPC)
[7] = dose: 200.0 mg/kg/injection, schedule: Q04DX003 (ip), vehicle: Klucel (hydroxypropylcellulose) (HPC)
[8] = dose: 400.0 mg/kg/injection, schedule: Q01DX009 (ip), vehicle: Klucel (hydroxypropylcellulose) (HPC)
[9] = dose: 400.0 mg/kg/injection, schedule: Q04DX003 (ip), vehicle: Klucel (hydroxypropylcellulose) (HPC)
[10] = dose: 50.0 mg/kg/injection, schedule: Q01DX009 (ip), vehicle: saline with Tween-80
[11] = dose: 100.0 mg/kg/injection, schedule: Q01DX009 (ip), vehicle: saline with Tween-80
[12] = dose: 200.0 mg/kg/injection, schedule: Q01DX009 (ip), vehicle: saline with Tween-80
[13] = dose: 25.0 mg/kg/injection, schedule: Q01DX009 (ip), vehicle: saline with Tween-80
[14] = dose: 12.5 mg/kg/injection, schedule: Q01DX009 (ip), vehicle: Klucel (hydroxypropylcellulose) (HPC)
[15] = dose: 25.0 mg/kg/injection, schedule: Q01DX009 (ip), vehicle: Klucel (hydroxypropylcellulose) (HPC)

Compound: CCCCCCCCCCCCCCCCCC(=O)[O][Hg][c]1ccccc1
- T/C [1]: 100 % of control
- T/C (dose: 5.5 mg/kg/injection, schedule: Q01DX001 (ip), vehicle: Klucel (hydroxypropylcellulose) (HPC)): 104 % of control
- T/C [2]: 104 % of control
- T/C (dose: 10.0 mg/kg/injection, schedule: Q01DX009 (ip), vehicle: other): 115 % of control
- T/C (dose: 11.0 mg/kg/injection, schedule: Q01DX001 (ip), vehicle: Klucel (hydroxypropylcellulose) (HPC)): 95 % of control
- T/C (dose: 14.0 mg/kg/injection, schedule: Q04DX003 (ip), vehicle: Klucel (hydroxypropylcellulose) (HPC)): 115 % of control
- T/C [3]: 109 % of control
- T/C (dose: 22.0 mg/kg/injection, schedule: Q04DX003 (ip), vehicle: Klucel (hydroxypropylcellulose) (HPC)): 120 % of control

Compound: Cc1ccc(C(=O)C[S+](C)C)c(C)c1
- T/C (dose: 10.46 mg/kg/injection, schedule: Q01DX001 (ip), vehicle: saline): 109 % of control
- T/C (dose: 12.5 mg/kg/injection, schedule: Q01DX009 (ip), vehicle: saline): 100 % of control
- T/C (dose: 20.93 mg/kg/injection, schedule: Q01DX001 (ip), vehicle: saline): 100 % of control
- T/C (dose: 25.0 mg/kg/injection, schedule: Q01DX009 (ip), vehicle: saline): 105 % of control
- T/C (dose: 41.87 mg/kg/injection, schedule: Q01DX001 (ip), vehicle: saline): 100 % of control
- T/C (dose: 50.0 mg/kg/injection, schedule: Q01DX009 (ip), vehicle: saline): 100 % of control
- T/C (dose: 56.25 mg/kg/injection, schedule: Q04DX003 (ip), vehicle: saline): 108 % of control
- T/C (dose: 75.0 mg/kg/injection, schedule: Q01DX009 (ip), vehicle: saline): 100 % of control
- T/C (dose: 112.5 mg/kg/injection, schedule: Q04DX003 (ip), vehicle: saline): 95 % of control

Compound: CCO/C(N)=N/OS(=O)(=O)c1ccccc1
- T/C (dose: 100.0 mg/kg/injection, schedule: Q04DX003 (ip), vehicle: saline with Tween-80): 99 % of control
- T/C (dose: 200.0 mg/kg/injection, schedule: Q04DX003 (ip), vehicle: saline with Tween-80): 96 % of control
- T/C (dose: 400.0 mg/kg/injection, schedule: Q04DX003 (ip), vehicle: saline with Tween-80): 98 % of control

Compound: O=C(Oc1ccccc1[N+](=O)[O-])c1ccccc1
- T/C (dose: 25.0 mg/kg/injection, schedule: Q04DX003 (ip), vehicle: other): 100 % of control
- T/C (dose: 75.0 mg/kg/injection, schedule: Q04DX003 (ip), vehicle: other): 100 % of control
- T/C (dose: 150.0 mg/kg/injection, schedule: Q04DX003 (ip), vehicle: other): 95 % of control
- T/C (dose: 400.0 mg/kg/injection, schedule: Q04DX003 (ip), vehicle: other): 90 % of control

Compound: CC1(C)CC(=O)C2OC2(C)C1 (centres undefined)
- T/C [4]: 100 % of control
- T/C [5]: 104 % of control
- T/C [6]: 90 % of control
- T/C [7]: 95 % of control
- T/C [8]: 109 % of control
- T/C [9]: 108 % of control

Compound: COC(CBr)OC
- T/C (dose: 10.0 mg/kg/injection, schedule: Q01DX009 (ip), vehicle: saline): 102 % of control
- T/C (dose: 20.0 mg/kg/injection, schedule: Q01DX009 (ip), vehicle: saline): 98 % of control
- T/C (dose: 40.0 mg/kg/injection, schedule: Q01DX009 (ip), vehicle: saline): 98 % of control

Compound: COc1cc([N+](=O)[O-])ccc1NC(=O)NCc1ccccc1
- T/C [10]: 95 % of control
- T/C [11]: 98 % of control
- T/C [12]: 98 % of control
- T/C (dose: 400.0 mg/kg/injection, schedule: Q01DX009 (ip), vehicle: saline with Tween-80): 104 % of control

Compound: O=c1c2ccccc2nc(-c2ccccc2Cl)n1/N=C/c1cccc([N+](=O)[O-])c1
- T/C [11]: 93 % of control
- T/C [12]: 100 % of control

Compound: CCOC(=O)C1(c2ccccc2)C(=O)Oc2ccccc21 (centres undefined)
- T/C [13]: 100 % of control
- T/C [10]: 98 % of control
- T/C [11]: 108 % of control
- T/C [12]: 122 % of control

Compound: CC(=O)Nc1ccc([I+]c2ccc([N+](=O)[O-])cc2)cc1
- T/C [14]: 99 % of control
- T/C [15]: 101 % of control
- T/C [13]: 119 % of control
- T/C (dose: 75.0 mg/kg/injection, schedule: Q01DX009 (ip), vehicle: saline with Tween-80): 116 % of control
- T/C [4]: 118 % of control
- T/C [11]: 115 % of control

Compound: CNc1cccnc1/C=N/NC(N)=S
- T/C [10]: 194 % of control
- T/C [11]: 181 % of control

Compound: CCC(=O)OC1CC2(C)C(=CC1=O)CCC1C2CCC2(C)C(OC(=O)CC)CCC12 (centres undefined)
- T/C (dose: 100.0 mg/kg/injection, schedule: Q01DX001 (ip), vehicle: Klucel (hydroxypropylcellulose) (HPC)): 90 % of control
- T/C [4]: 104 % of control
- T/C [5]: 108 % of control
- T/C (dose: 200.0 mg/kg/injection, schedule: Q01DX001 (ip), vehicle: Klucel (hydroxypropylcellulose) (HPC)): 95 % of control
- T/C [6]: 109 % of control
- T/C [7]: 100 % of control
- T/C (dose: 400.0 mg/kg/injection, schedule: Q01DX001 (ip), vehicle: Klucel (hydroxypropylcellulose) (HPC)): 100 % of control
- T/C [8]: 109 % of control
- T/C [9]: 95 % of control

Compound: Cc1ncc(/C=C/C(=O)O)c(C=O)c1O
- T/C (dose: 6.25 mg/kg/injection, schedule: Q04DX003 (ip), vehicle: saline): 103 % of control
- T/C (dose: 12.5 mg/kg/injection, schedule: Q04DX003 (ip), vehicle: saline): 101 % of control
- T/C (dose: 25.0 mg/kg/injection, schedule: Q04DX003 (ip), vehicle: saline): 100 % of control

Compound: O=NN(CCF)C(=O)NCCF
- T/C (dose: 0.25 mg/kg/injection, schedule: Q01DX009 (ip), vehicle: saline): 120 % of control
- T/C (dose: 0.5 mg/kg/injection, schedule: Q04DX003 (ip), vehicle: saline): 120 % of control
- T/C (dose: 1.0 mg/kg/injection, schedule: Q01DX009 (ip), vehicle: saline): 150 % of control and 172 % of control
- T/C (dose: 1.0 mg/kg/injection, schedule: Q04DX003 (ip), vehicle: saline): 104 % of control
- T/C (dose: 2.0 mg/kg/injection, schedule: Q01DX009 (ip), vehicle: saline): 268 % of control
- T/C (dose: 2.0 mg/kg/injection, schedule: Q04DX003 (ip), vehicle: saline): 175 % of control
- T/C (dose: 3.3 mg/kg/injection, schedule: Q04DX003 (ip), vehicle: saline): 165 % of control
- T/C (dose: 5.0 mg/kg/injection, schedule: Q04DX003 (ip), vehicle: saline): 235 % of control
- T/C (dose: 7.5 mg/kg/injection, schedule: Q04DX003 (ip), vehicle: saline): 95 % of control
- T/C (dose: 10.0 mg/kg/injection, schedule: Q04DX003 (ip), vehicle: saline): 300 % of control
- T/C (dose: 20.0 mg/kg/injection, schedule: Q04DX003 (ip), vehicle: saline): 110 % of control

Compound: N=C(N)SC1c2cc(Cl)ccc2-c2c(Cl)cc(Cl)cc21 (centres undefined)
- T/C (dose: 3.1 mg/kg/injection, schedule: Q01DX010 (ip), vehicle: carboxymethylcellulose (CMC)): 100 % of control
- T/C (dose: 6.2 mg/kg/injection, schedule: Q01DX010 (ip), vehicle: carboxymethylcellulose (CMC)): 110 % of control
- T/C [14]: 100 % of control
- T/C (dose: 12.5 mg/kg/injection, schedule: Q01DX010 (ip), vehicle: carboxymethylcellulose (CMC)): 110 % of control
- T/C [15]: 120 % of control
- T/C (dose: 100.0 mg/kg/injection, schedule: Q01DX010 (ip), vehicle: carboxymethylcellulose (CMC)): 150 % of control

Compound: CSc1nc2[nH]cnc(=S)c2[nH]1
- T/C (dose: 6.25 mg/kg/injection, schedule: Q01DX009 (ip), vehicle: saline with Tween-80): 104 % of control
- T/C (dose: 12.5 mg/kg/injection, schedule: Q01DX009 (ip), vehicle: saline with Tween-80): 104 % of control
- T/C [13]: 100 % of control

Compound: c1ccc(CN2CCCCC2)nc1
- T/C [1]: 105 % of control
- T/C (dose: 5.0 mg/kg/injection, schedule: Q04DX003 (ip), vehicle: Klucel (hydroxypropylcellulose) (HPC)): 104 % of control
- T/C [2]: 100 % of control
- T/C (dose: 10.0 mg/kg/injection, schedule: Q04DX003 (ip), vehicle: Klucel (hydroxypropylcellulose) (HPC)): 100 % of control
- T/C [3]: 105 % of control
- T/C (dose: 20.0 mg/kg/injection, schedule: Q04DX003 (ip), vehicle: Klucel (hydroxypropylcellulose) (HPC)): 100 % of control

Compound: C[C@]12CCC(=O)C=C1CC[C@@H]1[C@@H]2C(=O)C[C@@]2(C)[C@H]1CC[C@]2(O)C(=O)CO
- T/C [4]: 108 % of control
- T/C [5]: 110 % of control
- T/C [6]: 108 % of control
- T/C [7]: 115 % of control
- T/C [8]: 87 % of control
- T/C [9]: 110 % of control

Compound: COc1ccc2nonc2c1
- T/C [13]: 102 % of control
- T/C [10]: 93 % of control
- T/C [11]: 90 % of control
- T/C [12]: 106 % of control

Source: PubChem BioAssay AID328 (DTP/NCI, 2004)
